pEC50, pIC50: −log10 of the molar value.

Consider 19 compounds from patent publication US20260209208A1, “PHENYL-PYRAZOLE CARBOXAMIDE COMPOUNDS” (Acrivon Therapeutics, Inc., priority 2022, published 2026).

One data set relates to DAOY cells. As to the kind of experiment: Cell Titer Glo viability assay. Type of data set: cell-based. The note with it: Homo sapiens, 144 hours, Cell Titer Glo 2.0. The procedure: (§1) DAOY medulloblastoma cell line (ATCC) was cultured in Minimum Essential Medium Eagle supplemented with 10% fetal calf serum (Sigma), 1% Penicillin-Streptomycin and 10 mM HEPES buffer (HyClone). Cell cultures were kept in a humidified incubator at 37° C. and 5% CO2. Cells were routinely tested for Mycoplasma contamination.
DAOY cells were seeded at a density of 250 cells per well in tissue culture 384 well plates (Corning Costar). After overnight incubation, cells were incubated with test compounds at concentrations ranging from 0.17 to 10,000 nM. Viability compared to untreated control was assessed at 144 hours using Cell Titer Glo® 2.0 Viability Assay (Promega).

The target in a further data set is T1, Myt1 Kinase (Homo sapiens, UniProt Q99640).
T1 construct: endogenous in cells; host or cells: DAOY medulloblastoma cells (ATCC)
T1 sequence (Q99640 1-499): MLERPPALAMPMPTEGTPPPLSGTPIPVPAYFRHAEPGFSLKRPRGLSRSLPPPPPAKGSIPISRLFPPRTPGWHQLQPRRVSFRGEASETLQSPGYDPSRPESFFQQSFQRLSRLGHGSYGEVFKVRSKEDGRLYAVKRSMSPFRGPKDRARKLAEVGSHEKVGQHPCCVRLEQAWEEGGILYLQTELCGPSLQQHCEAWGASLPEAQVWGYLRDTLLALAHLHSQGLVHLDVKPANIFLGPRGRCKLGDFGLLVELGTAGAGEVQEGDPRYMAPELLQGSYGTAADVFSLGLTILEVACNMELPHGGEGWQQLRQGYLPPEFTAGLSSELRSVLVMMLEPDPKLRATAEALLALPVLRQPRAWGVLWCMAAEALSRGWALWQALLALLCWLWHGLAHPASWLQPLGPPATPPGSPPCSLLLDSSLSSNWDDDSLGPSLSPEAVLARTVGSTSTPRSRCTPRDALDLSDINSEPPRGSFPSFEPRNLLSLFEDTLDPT
As to the kind of experiment: AlphaLISA SureFire Ultra Human Phospho-CDK1 (Thr14) target engagement assay in DAOY cells. The data set is classed as cell-based. Particulars: 4 h incubation, Cdk1 phosphorylated on threonine 14, read-out: TE Myt1 Kinase (AlphaLISA). The procedure: The following cellular assay was used to determine the extent to which the compounds disclosed herein inhibit phosphorylation of CDK1 at Thr 14.
as §1
For target engagement assessment, quantification of Cdk1 phosphorylated on threonine 14 was detected using the AlphaLISA® SureFire® Ultra™ Human Phospho-CDK1 (Thr14) assay (Perkin Elmer). DAOY cells were seeded into tissue culture 96-well plates (VWR) to a density of 10,000 cells per well. Twenty-four hours post-seeding cells were incubated for 4 h with test compounds at concentrations ranging from 7 to 5000 nM. Cells were washed with PBS and lysed in 50 μl AlphaLISA® lysis buffer before freezing at −80° C. Ten μl of the lysate was transferred to 384 well plates and incubated with AlphaLISA® donor and acceptor beads according to the manufacturer's instructions. Dose response curves and EC50 values were calculated and visualized using GraphPad Prism version 9.
(In general: Bead proximity is the source of the signal in Alpha formats.)

Data set [1] addresses T2, recombinant human PMYT-1 (Myt1 kinase) (Homo sapiens, UniProt Q99640).
T2 construct: full length PMYT-1 was expressed by baculovirus in insect cells using a N-terminal GST tag; purchased Invitrogen A30984; host or cells: insect cells (baculovirus)
T2 sequence (Q99640 1-499): T1 sequence (Q99640 1-499)
As to the kind of experiment: LanthaScreen Europium (Eu) Kinase Binding Assay for Myt1 kinase. Particulars: TR-FRET tracer 178 displacement, GST-tagged full length PMYT-1, 60 min, room temperature; mean IC50; read-out: LANTHA Kinase Binding for PMyt1.

Data set [2] can be described thus: Oral bioavailability study in mice. Particulars: female CD-1 mice, single IV bolus 1 mg/kg vs oral gavage 3 mg/kg, dose normalized AUC0-∞. The data set is classed as in vivo. The procedure: We compared the oral bioavailability of Compound 75:
(Compound A), which has a thiazolyl moiety in place of the furanyl moiety in Compound 75. Female CD-1 mice treated with a single intravenous bolus (IV; 1 mg/kg) or oral gavage (PO; 3 mg/kg) of one of the compounds. The percent bioavailability (% F) was calculated by dividing the dose normalized area under the plasma concentration curve (AUC0-∞) by the dose normalized IV plasma AUC0-∞.

On to `Cc1ccc(O)c(C)c1-n1nc(-c2ccco2)c(C(N)=O)c1N` [Compound 75, 5-amino-3-(2-furyl)-1-(3-hydroxy-2,6-xylyl)-4-pyrazolecarboxamide], for which the pEC50 in the data set on DAOY cells is at least 6.30; on Myt1 Kinase, at least 6.60. Also, the pIC50 in data set [1] is at least 8.00. Moreover, the “Bioavailability (% F)” value in data set [2] came to 64 % F.
For the compound `Cc1ccc(O)c(C)c1-n1nc(-c2cc(-c3ccccc3)co2)c(C(N)=O)c1N` [Compound 88, 5-amino-1-(3-hydroxy-2,6-xylyl)-3-(4-phenyl-2-furyl)-4-pyrazolecarboxamide], the values for the pEC50 with DAOY cells and at Myt1 Kinase were at least 6.30 and at least 6.60, respectively. For the same compound, the pIC50 in data set [1] was at least 8.00.
Regarding `C=Cc1coc(-c2nn(-c3c(C)ccc(O)c3C)c(N)c2C(N)=O)c1` [Compound 96, 5-amino-1-(3-hydroxy-2,6-xylyl)-3-(4-vinyl-2-furyl)-4-pyrazolecarboxamide], the values for the pEC50 in the data set on DAOY cells and on Myt1 Kinase were at least 6.30 and at least 6.60, respectively. Moreover, in data set [1], the pIC50 is at least 8.00.
`Cc1ccc(O)c(C)c1-n1nc(-c2ccccn2)c(C(N)=O)c1N` [Compound 35]: the pEC50 in the data set on DAOY cells is under 6.00; at Myt1 Kinase, at least 6.60. In data set [1], the pIC50 was at least 8.00.
Regarding `Cc1ccc(-c2nn(-c3c(C)ccc(O)c3C)c(N)c2C(N)=O)o1` [Compound 81, 5-amino-1-(3-hydroxy-2,6-xylyl)-3-(5-methyl-2-furyl)-4-pyrazolecarboxamide], the pEC50 in the data set on DAOY cells was 6.00 to 6.30; on Myt1 Kinase, at least 6.60. The pIC50 in data set [1] was at least 8.00.
Turning to `Cc1ccc(O)c(C)c1-n1nc(-c2ccc(-c3cccnc3)o2)c(C(N)=O)c1N` [Compound 86, 5-amino-1-(3-hydroxy-2,6-xylyl)-3-[5-(3-pyridyl)-2-furyl]-4-pyrazolecarboxamide], the pEC50 in the data set on DAOY cells is 6.00 to 6.30; at Myt1 Kinase, at least 6.60. Besides, the pIC50 in data set [1] is at least 8.00.
As for `Cc1ccc(O)c(C)c1-n1nc(-c2ccc(-c3ccccc3)o2)c(C(N)=O)c1N` [Compound 87, 5-Amino-1-(3-hydroxy-2,6-xylyl)-3-(5-phenyl-2-furyl)-4-pyrazolecarboxamide], the pEC50 in the data set on DAOY cells is at least 6.30; on Myt1 Kinase, at least 6.60. The pIC50 in data set [1] is at least 8.00.
With `C=C(C)c1coc(-c2nn(-c3c(C)ccc(O)c3C)c(N)c2C(N)=O)c1` [Compound 97, 5-amino-1-(3-hydroxy-2,6-xylyl)-3-(4-isopropenyl-2-furyl)-4-pyrazolecarboxamide], the pEC50 with DAOY cells is at least 6.30; at Myt1 Kinase, at least 6.60. For the same compound, the pIC50 in data set [1] is at least 8.00.
As for `Cc1ccc(O)c(C)c1-n1nc(-c2ccco2)c(C(N)=O)c1N` (single isomer, unassigned) [Compound 104, 5-amino-3-(furan-2-yl)-1-(3-hydroxy-2,6-dimethylphenyl)-1H-pyrazole-4-carboxamide], the pEC50 in the data set with DAOY cells is 6.00 to 6.30; on Myt1 Kinase, at least 6.60. Besides, the pIC50 in data set [1] is at least 8.00.
In the case of `Cc1ccc(O)c(C)c1-n1nc(-c2ccc(-c3ccncc3)o2)c(C(N)=O)c1N` [Compound 99, 5-amino-1-(3-hydroxy-2,6-xylyl)-3-[5-(4-pyridyl)-2-furyl]-4-pyrazolecarboxamide], the values for the pEC50 in the data set on DAOY cells and at Myt1 Kinase were under 6.00 and at least 6.60, respectively. In addition, the pIC50 in data set [1] was at least 8.00.
As for `Cc1ccc(O)c(C)c1-n1nc(-c2cccs2)c(C(N)=O)c1N` [Compound 119], the pEC50 with DAOY cells is 6.00 to 6.30; on Myt1 Kinase it was at least 6.60. Also, the pIC50 in data set [1] was at least 8.00.
Turning to `Cc1ccc(O)c(C)c1-n1nc(-c2cc(C(C)C)co2)c(C(N)=O)c1N` [Compound 102, 5-amino-1-(3-hydroxy-2,6-xylyl)-3-(4-isopropyl-2-furyl)-4-pyrazolecarboxamide], the pEC50 in the data set on DAOY cells was at least 6.30; at Myt1 Kinase, at least 6.60. In addition, the pIC50 in data set [1] is at least 8.00.
On to `Cc1ccc(O)c(C)c1-n1nc(-c2cc(Br)co2)c(C(N)=O)c1N` (single isomer, unassigned) [Compound 106, 5-amino-3-(4-bromofuran-2-yl)-1-(3-hydroxy-2,6-dimethylphenyl)-1H-pyrazole-4-carboxamide], for which the pEC50 in the data set on DAOY cells was at least 6.30; on Myt1 Kinase it was at least 6.60. In addition, the pIC50 in data set [1] is at least 8.00.
On the same counts, the results for `Cc1ccc(O)c(C)c1-n1nc(-c2cc3ccccc3o2)c(C(N)=O)c1N` [Compound 72, 5-amino-3-(1-benzofuran-2-yl)-1-(3-hydroxy-2,6-xylyl)-4-pyrazolecarboxamide] are at least 6.30, at least 6.60 and at least 8.00.
As for `Cc1ccc(O)c(C)c1-n1nc(-c2ccc(Cl)o2)c(C(N)=O)c1N` [Compound 80, 5-amino-3-(5-chloro-2-furyl)-1-(3-hydroxy-2,6-xylyl)-4-pyrazolecarboxamide], the values for the pEC50 with DAOY cells and at Myt1 Kinase were under 6.00 and at least 6.60, respectively. Further, in data set [1], the pIC50 is at least 8.00.
As for `Cc1ccc(O)c(C)c1-n1nc(-c2nccs2)c(C(N)=O)c1N` [Compound 122], the pEC50 was at least 6.30 in the data set with DAOY cells and at least 6.60 at Myt1 Kinase. For the same compound, the pIC50 in data set [1] is at least 8.00. In data set [2], the “Bioavailability (% F)” value stood at 32 % F.
Regarding `Cc1ccc(O)c(C)c1-n1nc(-c2ncco2)c(C(N)=O)c1N` [Compound 123], the pEC50 in the data set on DAOY cells is 6.00 to 6.30; at Myt1 Kinase, at least 6.60. In data set [1], the pIC50 is at least 8.00.
For `C/C=C/c1coc(-c2nn(-c3c(C)ccc(O)c3C)c(N)c2C(N)=O)c1` [Compound 112, 3-{4-[(E)-1-propenyl]-2-furyl}-5-amino-1-(3-hydroxy-2,6-xylyl)-4-pyrazolecarboxamide], the pEC50 is 6.00 to 6.30 in the data set with DAOY cells and at least 6.60 at Myt1 Kinase. For the same compound, in data set [1], the pIC50 is at least 8.00.
In the case of `Cc1ccc(O)c(C)c1-n1nc(-c2ccccc2)c(C(N)=O)c1N` [Compound 9, 5-amino-1-(3-hydroxy-2,6-dimethylphenyl)-3-phenyl-1H-pyrazole-4-carboxamide; trifluoroacetic acid], the figures for the pEC50 with DAOY cells and on Myt1 Kinase were under 6.00 and at least 6.60, respectively. Besides, the pIC50 in data set [1] was 7.00 to 8.00.
